One may read the Ki as the equilibrium dissociation constant of an inhibitor or competing ligand from its target.

This passage reports Ki results from ChEMBL document CHEMBL1137346, “Carbonic anhydrase inhibitors: clash with Ala65 as a means for designing inhibitors with low affinity for the ubiquitous isozyme II, exemplified by the crystal structure of the topiramate sulfamide analogue” (J Med Chem, 2006).

Some targets named below: Carbonic anhydrase 7 (Homo sapiens, UniProt P43166); Carbonic anhydrase 13 (Mus musculus, UniProt Q9D6N1); Carbonic anhydrase 14 (Homo sapiens, UniProt Q9ULX7); Carbonic anhydrase 4 (Homo sapiens, UniProt P22748).
The target in assay [1] is Carbonic anhydrase 5B, mitochondrial (Homo sapiens, UniProt Q9Y2D0).
The target in assay [2] is Carbonic anhydrase 5A, mitochondrial (Homo sapiens, UniProt P35218).
Carbonic anhydrase 5A, mitochondrial, sequence (P35218 whole entry): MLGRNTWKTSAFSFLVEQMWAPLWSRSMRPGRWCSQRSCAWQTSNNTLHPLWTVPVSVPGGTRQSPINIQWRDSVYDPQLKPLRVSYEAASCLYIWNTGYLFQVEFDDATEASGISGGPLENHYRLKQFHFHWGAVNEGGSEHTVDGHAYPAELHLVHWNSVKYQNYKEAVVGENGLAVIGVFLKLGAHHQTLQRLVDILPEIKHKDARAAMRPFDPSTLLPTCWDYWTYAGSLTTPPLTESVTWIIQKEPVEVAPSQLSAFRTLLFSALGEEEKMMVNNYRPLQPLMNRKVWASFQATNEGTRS

Carbonic anhydrase 13, sequence (Q9D6N1 whole entry): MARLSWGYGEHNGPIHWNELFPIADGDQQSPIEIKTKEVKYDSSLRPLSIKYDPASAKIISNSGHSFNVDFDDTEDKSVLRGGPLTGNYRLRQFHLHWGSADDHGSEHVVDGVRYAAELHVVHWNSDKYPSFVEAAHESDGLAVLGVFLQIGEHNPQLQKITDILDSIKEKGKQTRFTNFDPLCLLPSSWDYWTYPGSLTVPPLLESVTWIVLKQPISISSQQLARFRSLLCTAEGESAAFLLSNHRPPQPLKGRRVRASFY
Carbonic anhydrase 5B, mitochondrial, sequence (Q9Y2D0 whole entry): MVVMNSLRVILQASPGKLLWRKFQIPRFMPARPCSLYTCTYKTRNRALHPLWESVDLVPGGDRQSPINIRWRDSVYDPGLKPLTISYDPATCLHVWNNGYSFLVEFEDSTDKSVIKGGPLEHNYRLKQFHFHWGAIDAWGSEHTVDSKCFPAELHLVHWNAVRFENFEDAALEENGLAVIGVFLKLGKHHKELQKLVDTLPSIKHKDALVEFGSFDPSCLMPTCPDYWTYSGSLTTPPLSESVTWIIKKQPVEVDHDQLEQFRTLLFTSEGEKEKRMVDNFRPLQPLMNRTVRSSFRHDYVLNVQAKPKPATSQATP
Carbonic anhydrase 4, sequence (P22748 whole entry): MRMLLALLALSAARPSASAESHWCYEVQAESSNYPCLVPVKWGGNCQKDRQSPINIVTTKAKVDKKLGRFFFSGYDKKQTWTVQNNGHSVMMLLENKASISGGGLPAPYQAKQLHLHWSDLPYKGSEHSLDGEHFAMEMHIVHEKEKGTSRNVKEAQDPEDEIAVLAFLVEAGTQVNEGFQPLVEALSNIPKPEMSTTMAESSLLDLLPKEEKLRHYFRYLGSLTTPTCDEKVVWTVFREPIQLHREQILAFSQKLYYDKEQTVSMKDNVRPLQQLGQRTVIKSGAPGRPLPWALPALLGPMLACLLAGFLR
Carbonic anhydrase 14, sequence (Q9ULX7 whole entry): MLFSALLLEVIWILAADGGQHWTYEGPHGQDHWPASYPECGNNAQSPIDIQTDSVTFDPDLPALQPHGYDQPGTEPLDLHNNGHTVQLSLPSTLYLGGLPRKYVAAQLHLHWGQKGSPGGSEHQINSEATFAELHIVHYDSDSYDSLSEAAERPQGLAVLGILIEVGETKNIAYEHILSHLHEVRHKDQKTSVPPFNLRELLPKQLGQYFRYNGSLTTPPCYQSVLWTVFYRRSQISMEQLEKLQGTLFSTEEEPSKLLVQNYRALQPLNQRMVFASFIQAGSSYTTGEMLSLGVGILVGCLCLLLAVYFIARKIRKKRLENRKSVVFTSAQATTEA
Carbonic anhydrase 7, sequence (P43166 whole entry): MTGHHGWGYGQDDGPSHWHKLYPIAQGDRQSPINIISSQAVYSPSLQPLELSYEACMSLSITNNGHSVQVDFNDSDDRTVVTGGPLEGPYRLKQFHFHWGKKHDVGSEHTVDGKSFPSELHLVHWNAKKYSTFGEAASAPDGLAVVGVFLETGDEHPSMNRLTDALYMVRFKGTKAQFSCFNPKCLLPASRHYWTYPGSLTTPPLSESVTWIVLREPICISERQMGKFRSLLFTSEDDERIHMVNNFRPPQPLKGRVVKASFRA

Regarding `CC1(C)O[C@@H]2[C@@H](CO[C@@]3(CNS(N)(=O)=O)OC(C)(C)O[C@@H]23)O1`, the Ki on Carbonic anhydrase 7 is 35 nM; at Carbonic anhydrase 13 it was 30 nM; at Carbonic anhydrase 14 it was 25 nM; on Carbonic anhydrase 4 it was 941 nM; in assay [1], 21 nM; in assay [2], 32 nM.
